Data from US20260102413A1, “TREATING PAIN ASSOCIATED WITH CENTRAL SENSITIZATION” (Medicon Pharmaceuticals, Inc., priority 2022, published 2026).
Where two headings read alike, the source gives them in different places.

Tests used:
[1] = system: mice with chronic constriction injury of the left sciatic nerve (PTPN); experiment: von Frey PWT, chronic constriction injury (CCI) model of PTPN, topical compounds; assay type: in vivo, mouse; details: Q922, PSA 5% on left hind paw 3x/day 6 days
[2] = target: COX-1 (Homo sapiens, UniProt P23219); details: cited from earlier work
Sequence of COX-1 (P23219 24-599): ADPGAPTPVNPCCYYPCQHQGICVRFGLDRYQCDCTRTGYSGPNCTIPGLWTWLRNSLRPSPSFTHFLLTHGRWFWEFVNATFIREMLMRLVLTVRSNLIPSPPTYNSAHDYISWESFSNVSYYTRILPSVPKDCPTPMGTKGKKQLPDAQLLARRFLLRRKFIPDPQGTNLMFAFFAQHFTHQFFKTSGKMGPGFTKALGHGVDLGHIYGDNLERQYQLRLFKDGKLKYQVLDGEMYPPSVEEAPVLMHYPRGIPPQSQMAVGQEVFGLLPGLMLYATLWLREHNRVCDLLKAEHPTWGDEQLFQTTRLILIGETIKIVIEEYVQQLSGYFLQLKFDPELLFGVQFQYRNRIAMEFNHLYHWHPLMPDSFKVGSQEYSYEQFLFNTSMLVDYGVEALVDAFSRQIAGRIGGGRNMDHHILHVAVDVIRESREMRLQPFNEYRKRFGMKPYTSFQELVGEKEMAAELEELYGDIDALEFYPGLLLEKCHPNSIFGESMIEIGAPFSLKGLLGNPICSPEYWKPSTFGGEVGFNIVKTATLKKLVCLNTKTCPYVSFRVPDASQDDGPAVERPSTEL

[3] = system: chronic pain after LASIK; experiment: PS to outer surface of eyelid in a subject after kerato-refractive surgery (LASIK); details: in vivo
[4] = system: mice; details: mouse, in vivo
[5] = system: mice with paclitaxel-induced central sensitization; experiment: cold allodynia (acetone test), paclitaxel-induced central sensitization; details: mouse, in vivo
Experimental: To determine the outcome of treatment, assessment of mechanical allodynia was performed. […] Both methods of assessing allodynia are described in Toma W, et al. Neuropharmacology 2017; 117:305-15. Mechanical and cold allodynia are determined at least one day apart in the same animal.
The acetone test was used. Briefly, acetone was applied onto the plantar surface of each hind paw. The time each mouse spent licking, lifting, and/or shaking the hind paw recorded over 60 seconds was the score for cold allodynia.

[6] = system: mice with oxaliplatin-induced neuropathic pain; experiment: von Frey mechanical allodynia, oxaliplatin-induced pain, topical PS; details: mouse, in vivo
Source text: (§1) Paw withdrawn, licking or shaking were considered positive responses.

[7] = system: mice given paclitaxel (CIPN prevention); experiment: von Frey PWT, prevention of paclitaxel-induced CIPN pain, topical PS; details: mouse, in vivo
Experimental: In order to establish CIPN, paclitaxel is administered at 10 mg/kg intraperitoneally into C57/BL mice. […] This dosing regimen of paclitaxel produces pain associated with CIPN with time courses that are similar to those of pain after paclitaxel administration in cancer patients.
The first doses were administered 2 days prior to the first administration of paclitaxel.

[8] = system: mice with NTG-induced chronic migraine; experiment: von Frey PWT, NTG-induced chronic migraine model; assay type: in vivo, mouse; details: mouse, in vivo
Source text: The NTG-induced chronic migraine model was used as described previously.

[9] = drug levels in proximal and distal half of the sciatic nerve after topical PS; assay type: in vivo, mouse; details: mouse, in vivo
Experimental: In a separate experiment we studied 8 mice with paclitaxel-induced PN treated with PS 8% ointment 3×/d for 2 wks. Mice were euthanized as above 30 minutes after the last dose of PS. From these mice we harvested both sciatic nerves dividing each into proximal and distal halves, and combined the corresponding halves of every two animals for assay of drug levels.

[10] = system: BALB/c mice infected with HSV-1 KOS strain (PHN); assay type: in vivo, mouse; details: mouse, in vivo
Experimental: PHN was induced in mice by infecting them with the HSV-1 KOS strain virus and following established protocols (Ou et al, Front Immunol, 14, 1026269, 2023; Takasaki et al, Anesthesiology, 96 (5), 1168-74, 2002).
; Reckitt Benckiser). Three days later, HSV-1 (10^6 PFUs in 20 μl PBS) was inoculated on the shin of the right hind paw (5×5 mm) after scarification with sandpaper. The virus was applied directly to the scarified area. The contralateral hind paw was without inoculation. Mock infection was performed using the same virus inactivated by heating at 60° C. for 1 h.
In a second experiment, the effect of the parent compound, sulindac, was tested in the same mouse model. Five days post-inoculation, sulindac (as a 5% gel), or vehicle control were administered topically onto both hind paws of mice three times a day for three days.
PHN was induced in mice by infecting them with the HSV-1 KOS strain virus in line with the previous Examples.
Five days post-inoculation, NO-sulindac (Formula XLIV) (as a 5% gel), or vehicle control were administered topically onto both hind paws of mice three times a day for three days.

[11] = assay type: in vivo, mouse; details: mouse, in vivo
Experimental: At 0.5, 1, 3, 5, 12, 18, and 24 h, mice (n=4-5 mice/time point) were euthanized with CO2 inhalation. Blood was drawn immediately after death. Tissues, including paw skin, paw muscle, leg muscle, the sciatic nerve and lumbar DRG bilaterally were dissected quickly, immediately frozen in liquid nitrogen and stored at −80° C. until analyzed.

[12] = target: COX-2 (Homo sapiens, UniProt P35354); details: cited from earlier work
Sequence of COX-2 (P35354 18-604): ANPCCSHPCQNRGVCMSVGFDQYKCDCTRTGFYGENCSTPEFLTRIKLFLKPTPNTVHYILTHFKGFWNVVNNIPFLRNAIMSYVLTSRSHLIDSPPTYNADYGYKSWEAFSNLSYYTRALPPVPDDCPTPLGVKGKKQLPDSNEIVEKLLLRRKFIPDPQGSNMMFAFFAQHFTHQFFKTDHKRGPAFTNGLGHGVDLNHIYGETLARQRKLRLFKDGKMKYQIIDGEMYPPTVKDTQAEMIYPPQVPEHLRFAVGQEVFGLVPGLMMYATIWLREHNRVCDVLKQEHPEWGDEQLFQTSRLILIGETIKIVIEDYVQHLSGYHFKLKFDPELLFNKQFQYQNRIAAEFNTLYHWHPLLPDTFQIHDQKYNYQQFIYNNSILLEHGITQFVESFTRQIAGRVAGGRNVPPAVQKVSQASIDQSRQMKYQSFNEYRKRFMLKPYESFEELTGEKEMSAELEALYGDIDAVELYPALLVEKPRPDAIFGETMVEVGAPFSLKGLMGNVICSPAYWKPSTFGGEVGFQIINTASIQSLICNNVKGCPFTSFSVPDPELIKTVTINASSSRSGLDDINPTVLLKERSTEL

[13] = system: corneal neuropathic pain; experiment: preliminary in vivo evidence, PS to the ocular surface, corneal neuropathic pain
[14] = in vivo; details: rat
Experimental: Approximately 800 μL of blood were collected through cardiac puncture and immediately centrifuged.
Tissue samples were harvested using separate dissection instruments for each tissue sample to avoid cross contamination, and snap frozen. The levels of the test drug were determined by HPLC.
As previously described (Wen et al, 2019), each plasma sample was mixed with double volume of acetonitrile and centrifuged at 13,200 rpm for 15 min. Tissue samples were weighed, ddH2O (100-300 μL, depending on tissue weight) was added, and they were homogenized. Following addition of acetonitrile (twice the volume of the homogenate), the mixture was sonicated for 10 min, centrifuged at 13,200 rpm for 15 min, and analyzed by HPLC, as reported (Wen et al, 2019).
It was performed following a previously reported method (Xie et al, 2012). Briefly, the HPLC system consisted of a Waters Alliance 2695 Separations Module (Milford, MA, USA) equipped with a Waters 2998 photodiode array detector (328 nm) and a Thermo Hypersil BDS C18 column (150×4.6 mm, particle size 3 μm). The mobile phase consisted of a gradient between solvent A (formic acid, CH3CN, H2O (0.1:4.9:95 v/v/v)) and solvent B (CH3CN) at a flow rate of 1 mL·min−1 at 30° C. We applied gradient elution from 30 to 100% solvent B from 0-6 min, and it was maintained at 100% solvent B until 8 min.
The methods are identical to those used in Example 27.
A single dose of PN or PSA was given by oral gavage to groups of three Sprague-Dawley rats, which were euthanized and dissected according to the early example. The oral gavage solution of phosphonaproxen was prepared by dissolving in 10% DMSO and then suspending it in corn oil.

[15] = system: STZ-diabetic rats; assay type: in vivo, rat; details: rat, in vivo
Source text: The animal model corresponds to that used for Example 4, but using a prevention protocol. As in Example 4, the outcome measure, determining the effect of the treatment on the prevention of mechanical allodynia, was the PWT test, using von Frey filaments. The measurements were taken at day −3, before treatment or induction of neuropathic pain associated with DPN, and again at the end of the study period (day 28).
The rats were randomised into treatment groups as follows, all having an average body weight of about 225 g. • 1. Group 1: naïve rats (n=6) • 2. Group 2: STZ only (n=8) • 3. Group 3: STZ plus vehicle (n=8) • 4. […] Group 5: STZ plus sulindac 0.7% (n=8) • 6. Group 6: STZ plus lidocaine cream 5% (n=8)
Each treatment group was subjected to a PWT assessment at day −3 in order to determine the baseline of mechanical allodynia.
For those rats in the lidocaine treatment group, lidocaine cream was applied only once to both hind paws of the rats 30 min before the final PWT measurement on day 28. On day 0, neuropathic pain associated with DPN was induced with the administration of STZ, and the blood glucose was checked on day 3.

[16] = system: mice with vincristine-induced neuropathic pain; experiment: von Frey mechanical allodynia, vincristine-induced pain, topical PS; details: mouse, in vivo
Source text: as §1

SMILES: CCOP(=O)(NCCCCNC(=O)c1ccccc1SC/C=C(\C)CC/C=C(\C)CCC=C(C)C)OCC [Q922]
- PWT, g Mean ± SEM [1]: 1.48 ± 0.36 g

SMILES: CCOP(=O)(OCC)OCCCCOC(=O)CC1=C(C)/C(=C/c2ccc([S+](C)[O-])cc2)c2ccc(F)cc21 (stereo not shown) [PS, phosphosulindac]
- inhibition of COX-1 [2]: does not inhibit
- effect on chronic pain after LASIK [3]: dramatically reduced chronic pain
- topical or systemic side effects [4]: no topical or systemic side effects
- cold allodynia score (acetone test, time licking/lifting/shaking over 60 s) [5]: 3.1±0.4
- mechanical allodynia score (von Frey) after PS treatment [6]: 1.8 ± 0.09 g
- PWT, gm Mean ± SEM [7]: 0.4 ± 0.01 gm
- mechanical allodynia score (von Frey) [7]: 1.2 ± 0.15 g
- PWT, g Mean ± SEM, Baseline [8]: 2.28 ± 0.34 g
- PWT, g Mean ± SEM, Day 11 [8]: 1.18 ± 0.10 g
- concentration in distal half of the sciatic nerve, mean ± SEM [9]: 17.0 ± 5.1 µM
- concentration in proximal half of the sciatic nerve, mean ± SEM [9]: 0.9 ± 0.3 µM
- PWT, g Mean ± SEM, Post-inoculation, day 5 [10]: 0.53 ± 0.06 g
- PWT, g Mean ± SEM, Post-treatment [10]: 0.93 ± 0.06 g
- PWT, g Mean ± SEM, Pre-inoculation [10]: 1.27 ± 0.19 g
- detection in the systemic circulation [11]: no PS was detected
- inhibition of COX-2 [12]: does not inhibit
- analgesic effect on corneal neuropathic pain [13]: striking analgesic effect
- detection in the systemic circulation [14]: No PS was detected
- T1/2 ([14]; po, 250 mg/kg): 3.3 h
- von Frey, gm mean ± SEM [15]: 33.1 ± 1.6 gm
- mechanical allodynia score (von Frey) [16]: 1.5 ± 0.09 g
